Measurements from US11390631B1, “Benzodiazepine derivatives as RSV inhibitors” (priority 2015, dated 2022).
Where two headings read alike, the source gives them in different places.

Tested on: Human RSV-A (“Long” strain)
Test: RSV-A assay: inhibition of cytopathic effect in Hep-2 cells, ATPlite readout
Type: cell-based, Human respiratory syncytial virus (HRSV)
Details: read-out: Human RSV-A (“Long” strain) EC50
Text: Hep-2 cells, (originally derived from tumors grown in irradiated-cortisonised weanling rats that had been injected with epidermoid carcinoma tissue from a person's larynx, but later found to be indistinguishable from HeLa cells by PCR DNA analysis), were used for the culturing of genotype A, “Long” strain RSV. Flasks were inoculated with RSV and viral stocks were collected once cytopathic effect (CPE) was greater than 90%. Viral stocks in 25% sucrose media were snap frozen using liquid nitrogen to increase viral stability. Viral stock titers were quantified by tissue culture infectious dose 50% (TCID50) using 8,000 cells per well and 3-fold viral dilutions across a 96-well plate, cultured for 4 days. Viral stock titers were also quantified by a plaque forming unit assay, as described elsewhere.
Following extensive parameter testing, the final assay is run as follows: Hep-2 cells are seeded into the inner 60 wells of a 96-well plate at 8,000 cells per well in a volume of 50 μL using Growth Media (DMEM without phenol red, 1% L-Glut, 1% Penn/Strep, 1% nonessential amino acids, 10% heat-inactivated FBS). 2-fold serial dilutions of control and test compounds are added to the wells in duplicate in a total volume of 25 μL. Viral stock is then added to the wells at a multiplicity of infection (MOI) of 0.1 in a volume of 25 μL, bringing the total volume of each well to 100 μL. The MOI is calculated using the PFU/mL, or TCID50 if unavailable. Each 96-well plate has a control column of 6 wells with cells and virus but no compound (negative control, max CPE), a column with cells but no compound or virus (positive control, minimum CPE), and a column with no cells or virus or compound (background plate/reagent control). The control wells with cells but no virus are given an additional 25 uL of growth media containing an equal quantity of sucrose as those wells receiving the viral stock in order to keep consistent in media and volume conditions. The outer wells of the plate are filled with 125 μL of moat media (DMEM, 1% Penn/Strep) to act as a thermal and evaporative moat around the test wells. Following a 5-day incubation period, the plates are read using ATPlite (50 uL added per well), which quantifies the amount of ATP (a measure of cell health) present in each well. Assay plates are read using the Envision luminometer. In parallel, cytotoxicity is examined on an additional 96-well plate treated in an identical manner, but substituting the 25 μL of viral stock for 25 μL of growth media. […] EC50 ranges are as follows: A<0.4 μM; B 0.4-0.8 μM; C>0.8 μM and CC50 ranges are as follows: A>50 μM; B 10-50 μM; C<10 μM.

[1] = human respiratory syncytial virus, HEp-2, 120 h
[2] = Hep-2 cells, MOI 0.1, 5-day incubation, ATPlite

SMILES | EC50 [1] | EC50 [2]
N#Cc1ccc(-c2nnc(N[C@H]3N=C(c4ccccc4)c4ccccc4NC3=O)o2)c(-c2ccsc2)c1 [Example 309] | > 800 nM | –
COc1cc(-c2nnc(NC3N=C(c4ccccc4)c4ccccc4NC3=O)o2)ccn1 (centres unmarked) [Example 56] | > 800 nM | –
CCc1nc(N2CCOCC2)c(-c2nnc(N[C@H]3N=C(c4ccccc4)c4ccccc4NC3=O)o2)cc1C#N [Example 176] | < 400 nM | –
O=C1Nc2ccccc2C(c2ccccc2)=N[C@@H]1Nc1nnc(-c2nc(-c3ccccc3F)sc2N2CCOCC2)o1 [Example 427] | < 400 nM | –
O=C1Nc2ccccc2C(c2ccccc2)=NC1Nc1nnc(-c2cccnc2N2CCCCC2)o1 (centres unmarked) [Example 241] | > 800 nM | –
N#Cc1ccc(-c2nnc(NC3N=C(c4ccccc4)c4ccccc4NC3=O)o2)s1 (centres unmarked) [Example 183] | < 400 nM | –
O=C1Nc2ccccc2C(c2ccccc2)=NC1Nc1nnc(-c2cccnc2N2C[C@@H]3C[C@H]2CO3)o1 (some centres unmarked) [Example 248] | > 800 nM | –
N#CC1CN(c2ncccc2-c2nnc(NC3N=C(c4ccccc4)c4ccccc4NC3=O)o2)C1 (centres unmarked) [Example 274] | > 800 nM | –
O=C1Nc2ccccc2C(c2ccccc2)=N[C@@H]1Nc1nnc(-c2ncc(C(F)(F)F)cc2N[C@H]2CCOC2)o1 [Example 470] | > 800 nM | –
O=C1Nc2ccccc2C(c2ccccc2)=NC1Nc1nnc(-c2ccccc2N2CCS(=O)(=O)CC2)o1 (centres unmarked) [Example 240] | > 800 nM | –
O=C1Nc2ccccc2C(c2ccccc2)=NC1Nc1nnc(-c2cccnc2N2C3CCC2COC3)o1 (centres unmarked) [Example 265] | > 800 nM | –
O=C1Nc2ccccc2C(c2ccccc2)=N[C@@H]1Nc1nnc(-c2ncc(F)cc2N2CC3CCC(C2)O3)o1 [Example 299] | < 400 nM | –
O=C1Nc2ccccc2C(c2ccccc2)=NC1Nc1nnc(C2CC(F)(F)C2)o1 (centres unmarked) [Example 214] | > 800 nM | –
O=C1Nc2ccccc2C(c2ccccc2)=N[C@@H]1Nc1nnc(-c2ccc(C(F)(F)F)cc2N2CCOCC2)o1 [Example 152] | < 400 nM | –
O=C1Nc2ccccc2C(c2ccccc2)=NC1Nc1nnc(-c2ccc(N3CCOCC3)c(F)c2)o1 (centres unmarked) [Example 112] | > 800 nM | –
O=C1Nc2ccccc2C(c2ccccc2)=N[C@@H]1Nc1cc(-c2ccccc2)cnn1 [Example 462] | > 800 nM | –
CC1(c2nnc(NC3N=C(c4ccccc4)c4ccccc4NC3=O)o2)CCNC1 (centres unmarked) [Example 223] | > 800 nM | –
CC(C)(O)c1nc(-c2nnc(N[C@H]3N=C(c4ccccc4)c4ccccc4NC3=O)o2)c(N2CCOCC2)s1 [Example 437] | < 400 nM | –
O=C1Nc2ccccc2C(c2ccccc2)=N[C@@H]1Nc1nnc(-c2ncc(C3CC3)cc2N2CC3CCC(C2)O3)o1 [Example 321] | < 400 nM | –

SMILES | EC50 [1] | EC50 [2]
N#Cc1ccc(-c2nnc(N[C@H]3N=C(c4ccccc4)c4ccccc4NC3=O)o2)c(N2C3CCC2COC3)c1 [Example 289] | < 400 nM | –
O=C1Nc2ccccc2C(c2ccccc2)=NC1Nc1nnc(-c2cccnc2N2C[C@H]3C[C@@H]2CO3)o1 (some centres unmarked) [Example 264] | > 800 nM | –
Cc1cc(-n2cncn2)ccc1-c1nnc(NC2N=C(c3ccccc3)c3ccccc3NC2=O)o1 (centres unmarked) [Example 218] | > 800 nM | –
COCCCc1sc(C)nc1-c1nnc(N[C@H]2N=C(c3ccccc3)c3ccccc3NC2=O)o1 [Example 479] | > 800 nM | –
COc1ccc2nccc(-c3nnc(N[C@H]4N=C(c5ccccc5)c5ccccc5NC4=O)o3)c2c1 [Example 408] | > 800 nM | –
O=C1Nc2ccccc2C(c2ccccc2)=N[C@@H]1Nc1nnc(-c2nc(C(F)(F)F)sc2N2CCO[C@H]3C[C@H]32)o1 (single isomer, unassigned) [Example 484] | – | < 400 nM
O=C1Nc2ccccc2C(c2ccccc2)=NC1Nc1nnc(-c2cc(F)cnc2N2CCOCC2)o1 (centres unmarked) [Example 145] | 400 to 800 nM | –
O=C1Nc2ccccc2C(c2ccccc2)=N[C@@H]1Nc1nnc(-c2cc(C3CC3)sc2N2CCOCC2)o1 [Example 384] | < 400 nM | –
O=C1Nc2ccccc2C(c2ccccc2)=NC1Nc1nnc(-c2ccc(N3CCOCC3)cc2Cl)o1 (centres unmarked) [Example 122] | > 800 nM | –
O=C1Nc2ccccc2C(c2ccccc2)=NC1Nc1nnc(-c2ncc(N3CCOCC3)cc2Cl)o1 (centres unmarked) [Example 135] | > 800 nM | –
CS(=O)(=O)c1ccc(-c2nnc(NC3N=C(c4ccccc4)c4ccccc4NC3=O)o2)nc1 (centres unmarked) [Example 107] | > 800 nM | –
C[C@@H]1CN(c2cc(F)ccc2-c2nnc(N[C@H]3N=C(c4ccccc4)c4ccccc4NC3=O)o2)C[C@H](C)O1 [Example 284] | > 800 nM | –
Cn1cc(-c2nnc(N[C@H]3N=C(c4ccccc4)c4ccccc4NC3=O)o2)c(N2CCOCC2)n1 [Example 181] | < 400 nM | –
COCCn1ccc2cccc(-c3nnc(N[C@H]4N=C(c5ccccc5)c5ccccc5NC4=O)o3)c21 [Example 426] | > 800 nM | –
O=C1Nc2ccccc2C(c2ccccc2)=N[C@@H]1Nc1nnc(-c2ccc(F)nc2N2CCOCC2)o1 [Example 151, (S)-3-((5-(6-fluoro-2-morpholinopyridin-3-yl)-1,3,4-oxadiazol-2-yl)amino)-5-phenyl-1,3-dihydro-2H-benzo[e][1,4]diazepin-2-one] | < 400 nM | –
COC[C@H]1C[C@@H]1c1cc(C(F)(F)F)cnc1-c1nnc(N[C@@H]2N=C(c3ccccc3)c3ccccc3NC2=O)o1 [Example 483] | – | > 800 nM
O=C1Nc2ccccc2C(c2ccccc2)=N[C@@H]1Nc1nnc(-c2cnc(N3CC4CCC(C3)O4)nc2)o1 [Example 166] | > 800 nM | –
COC1CN(c2ncccc2-c2nnc(NC3N=C(c4ccccc4)c4ccccc4NC3=O)o2)C1 (centres unmarked) [Example 258] | > 800 nM | –
O=C1Nc2ccccc2C(c2ccccc2)=N[C@@H]1Nc1nnc(-c2cn(-c3cccnc3)nc2N2CCOCC2)o1 [Example 425] | < 400 nM | –

SMILES | EC50 [1] | EC50 [2]
O=C1Nc2ccccc2C(c2ccccc2)=NC1Nc1nnc(-c2ccccc2N2CCOCC2)[nH]1 (centres unmarked) [Example 367] | > 800 nM | –
O=C1Nc2ccccc2C(c2ccccc2)=NC1Nc1cnc(-c2ccc(F)cc2)cn1 (centres unmarked) [Example 373] | > 800 nM | –
Cc1nc2ccc(-c3nnc(NC4N=C(c5ccccc5)c5ccccc5NC4=O)o3)cc2s1 (centres unmarked) [Example 187] | 400 to 800 nM | –
O=C1Nc2ccccc2C(c2ccccc2)=N[C@@H]1Nc1nnc(-c2nc(C3(C(F)(F)F)CCC3)sc2N2CCOCC2)o1 [Example 490] | < 400 nM | –
N#Cc1ccc(-c2nnc(N[C@H]3N=C(c4ccccc4)c4ccccc4NC3=O)o2)c(N2CC3CCC(C2)O3)c1 [Example 281] | < 400 nM | –
O=C1Nc2ccccc2C(c2ccccc2)=N[C@@H]1Nc1nnc(-c2ccc(=O)[nH]c2N2CCOCC2)o1 [Example 156, (S)-3-((5-(2-morpholino-6-oxo-1,6-dihydropyridin-3-yl)-1,3,4-oxadiazol-2-yl)amino)-5-phenyl-1,3-dihydro-2H-benzo[e][1,4]diazepin-2-one] | > 800 nM | –
COCCn1c(-c2nnc(N[C@H]3N=C(c4ccccc4)c4ccccc4NC3=O)o2)nc2ccccc21 [Example 298] | > 800 nM | –
O=C1Nc2ccccc2C(c2ccccc2)=NC1Nc1nnc(-c2ccncc2)[nH]1 (centres unmarked) [Example 366] | > 800 nM | –
O=C1Nc2ccccc2C(c2ccccc2)=NC1Nc1nnc(-c2ccc(-n3ccc(C(F)(F)F)n3)cc2)o1 (centres unmarked) [Example 202] | > 800 nM | –
O=C1Nc2ccccc2C(c2ccccc2)=N[C@@H]1Nc1nnc(-c2cnc(C3CC3)nc2N2CCOCC2)o1 [Example 167] | < 400 nM | –
CCn1cc(-c2nnc(N[C@H]3N=C(c4ccccc4)c4ccccc4NC3=O)o2)c(N2CCOCC2)n1 [Example 401] | < 400 nM | –
N#CC1CCN(c2ncccc2-c2nnc(NC3N=C(c4ccccc4)c4ccccc4NC3=O)o2)CC1 (centres unmarked) [Example 260] | > 800 nM | –
O=C1Nc2ccccc2C(c2ccccc2)=NC1Nc1nnc(-c2ccc(-n3cncn3)cc2)o1 (centres unmarked) [Example 273] | 400 to 800 nM | –
COC1CN(c2cc(C(F)(F)F)cnc2-c2nnc(N[C@H]3N=C(c4ccccc4)c4ccccc4NC3=O)o2)C1 [Example 271] | > 800 nM | –
O=C1Nc2ccccc2C(c2ccccc2)=N[C@@H]1Nc1nnc(-c2ncc(C(F)F)cc2N2CCOCC2)o1 [Example 461] | < 400 nM | –
O=C1Nc2ccccc2C(c2ccccc2)=N[C@H]1Nc1nnc(-c2cn(CC3CC3)nc2N2CCOCC2)o1 [Example 447] | – | 400 to 800 nM
O=C1Nc2ccccc2C(c2ccccc2)=NC1Nc1nnc(C2CCNC2)o1 (centres unmarked) [Example 221] | > 800 nM | –
CC(C)(c1nc(-c2nnc(N[C@H]3N=C(c4ccccc4)c4ccccc4NC3=O)o2)c(N2CCOCC2)s1)N1CCOCC1 [Example 459] | < 400 nM | –
